Measured values published in ChEMBL document CHEMBL5579898, “Between Theory and Practice: Computational/Experimental Integrated Approaches to Understand the Solubility and Lipophilicity of PROTACs” (J Med Chem, 2024).
Converted amounts (≈) assume the structure as drawn. Non-standard residues stand in square brackets, D forms with d. Residues, ends and D or L forms follow the SMILES beside them. *: point of attachment. X2 = O=C(NCCCCCCN*)c1cccc2sc(N3CCOCC3)nc12; Dip = N[C@H](C(=O)O)C(c1ccccc1)c1ccccc1; Chg = N[C@H](C(=O)O)C1CCCCC1; NMeA = CN[C@@H](C)C(=O)O

Tests used:
Type in all cases: physicochemical
[1] = Kinetic solubility of the compound incubated for 60 mins under shaking condition by UV-Vis spectroscopic analysis; details: 1 h
[2] = Kinetic solubility of the compound incubated for 60 mins under shaking condition by UHPLC-MS analysis; details: 1 h
[3] = Distribution coefficient, logD of compound in n-Octanol/PBS at pH 7.4 incubated for 30 mins under shaking condition by UV-Vis spectroscopic analysis; details: for logD: octanol/water, pH 7.4, 0.5 h, BLD = below limit of detection; for logD at 0.5 h: n-octanol/PBS, pH 7.4
[4] = Distribution coefficient, logD of compound in n-Octanol/PBS at pH 7.4 incubated for 30 mins under shaking condition by UHPLC-MS analysis
[5] = Kinetic solubility of the compound in universal buffer at pH 7.4 incubated for 60 mins under shaking condition by UHPLC-MS analysis; details: read-out: Kinetic_solubility
[6] = Dissociation constant, pKa of the compound
[7] = Kinetic solubility of the compound in PBS buffer at 50 mM pH 7.4 incubated for 60 mins under shaking condition by UHPLC-MS analysis; details: read-out: Kinetic_solubility

Row | Structure (SMILES) | log(Kinetic_solubility) ([1]; BLD = below limit of detection) | log(Kinetic_solubility) [2] | logD [3] | logD at 0.5 h [4] | solubility kinetic at 1 h [5] | pKa [6] | log(Kinetic_solubility) [1] | solubility kinetic at 1 h [7] | logD at 0.5 h [3] | log(Kinetic_solubility) ([2]; BLD = below limit of detection)
1 | Cc1sc2c(c1C)C(c1ccc(Cl)cc1)=N[C@@H](CC(=O)NCCCCCCCCNc1cccc3c1C(=O)N(C1CCC(=O)NC1=O)C3=O)c1nnc(C)n1-2 (some centres undefined) | Bld | -7.33 | Bld | 5.5 | 0.05 µM (≈ 0.0392 µg/mL) | 7.98 | – | – | – | –
2 | Cc1ncsc1-c1ccc([C@H](C)NC(=O)[C@@H]2C[C@@H](O)CN2C(=O)[C@@H](NC(=O)CCCCNC(=O)COc2c(-c3csc(N4CCOCC4)n3)ccc(F)c2F)C(C)(C)C)cc1 | – | -4.72 | Bld | 4.98 | 12 µM (≈ 10.6 µg/mL) | – | -4.72 | 17 µM (≈ 15 µg/mL) | – | –
3 | Cc1ncsc1-c1ccc([C@H](C)NC(=O)[C@@H]2C[C@@H](O)CN2C(=O)[C@@H](NC(=O)CCCCn2cc(CN3CCN(C(=O)C[C@@H]4N=C(c5ccc(Cl)cc5)c5c(sc(C)c5C)-n5c(C)nnc54)CC3)nn2)C(C)(C)C)cc1 | – | -4.68 | – | 4.12 | – | – | -4.54 | – | 3.81 | –
4 | CCOC(=O)c1c(C)n(Cc2ccccc2)c2ccc(OCCCCCCC(=O)N[C@H](C(=O)N3C[C@H](O)C[C@H]3C(=O)N[C@@H](C)c3ccc(-c4scnc4C)cc3)C(C)(C)C)cc12 | Bld | – | Bld | 5.15 | – | – | – | – | – | Bld
5 | Cc1ncsc1-c1ccc([C@H](C)NC(=O)[C@@H]2C[C@@H](O)CN2C(=O)[C@@H](NC(=O)CCCCCCCCCCC(=O)N2CCN(C(=O)c3cc(Cc4n[nH]c(=O)c5ccccc45)ccc3F)CC2)C(C)(C)C)cc1 | Bld | -7.21 | Bld | 5 | – | – | – | – | – | –
6 | Cc1sc2c(c1C)C(c1ccc(Cl)cc1)=N[C@@H](CC(=O)NCCCN1CCN(CCCNc3cccc4c3C(=O)N(C3CCC(=O)NC3=O)C4=O)CC1)c1nnc(C)n1-2 (some centres undefined) | – | -5.15 | – | 3.82 | 71 µM (≈ 59.6 µg/mL) | 4.49 | -4.15 | – | 3.3 | –
7 | COc1ccc2c(c1)c(CC(=O)NCCN1CCN(C(=O)CCC(=O)N[C@H](C(=O)N3C[C@H](O)C[C@H]3C(=O)N[C@@H](C)c3ccc(-c4scnc4C)cc3)C(C)(C)C)CC1)c(C)n2C(=O)c1ccc(Cl)cc1 | – | -5.7 | Bld | 4.8 | – | – | -5.22 | – | – | –
8 | Cc1ncsc1-c1ccc([C@H](C)NC(=O)[C@@H]2C[C@@H](O)CN2C(=O)[C@@H](NC(=O)CCCCn2cc(CCCC(=O)N3CCN(C(=O)c4cc(Cc5n[nH]c(=O)c6ccccc56)ccc4F)CC3)nn2)C(C)(C)C)cc1 | – | -4.34 | – | 3 | – | – | -4.37 | – | 2.89 | –
9 | Cn1c(=O)n(C)c2cc(CNCCOCCOCCNCC3CCN(c4ccc(C(=O)N[C@H]5CC[C@H](Oc6ccc(C#N)c(Cl)c6)CC5)nn4)CC3)ccc21 | – | -3.06 | – | 2.52 | – | – | -3.07 | – | 2.45 | –
10 | O=C1CCC(N2C(=O)c3cccc(NCCOCCOCCOCCn4cc(COc5ccc(N(C(=O)CCl)C(C(=O)NCCc6ccccc6)c6cccs6)cc5Cl)nn4)c3C2=O)C(=O)N1 (centres undefined) | Bld | -6.77 | – | 4.27 | – | – | – | – | 3.92 | –
11 | Cc1ncsc1-c1ccc([C@H](CC(=O)NCCCCCCCCCCC(=O)N[C@H]2C(C)(C)[C@H](Oc3ccc(C#N)c(Cl)c3)C2(C)C)NC(=O)[C@@H]2C[C@@H](O)CN2C(=O)[C@@H](NC(=O)C2(F)CC2)C(C)(C)C)cc1 | Bld | – | Bld | 4.9 | – | – | – | – | – | Bld
12 | Cn1c(=O)n(C)c2cc(CNCCOCCNCC3CCN(c4ccc(C(=O)N[C@H]5CC[C@H](Oc6ccc(C#N)c(Cl)c6)CC5)nn4)CC3)ccc21 | – | -3.64 | – | 3.7 | – | – | -3.69 | – | 3.25 | –
13 | Cc1ncsc1-c1ccc([C@H](C)NC(=O)[C@@H]2C[C@@H](O)CN2C(=O)[C@@H](NC(=O)CCCCn2cc(COc3c(-c4csc(N5CCOCC5)n4)ccc(F)c3F)nn2)C(C)(C)C)cc1 | – | -5.14 | Bld | 4.99 | – | – | -5 | – | – | –
14 | O=C1CCC(N2C(=O)c3cccc(NCCOCCOCC(=O)N4CCN(C(=O)c5cc(Cc6n[nH]c(=O)c7ccccc67)ccc5F)CC4)c3C2=O)C(=O)N1 (centres undefined) | – | -4.19 | – | 1.27 | – | – | -4.16 | – | 0.867 | –
15 | COc1cc(C(=O)NCCCCCCNC(=O)COc2c(-c3csc(N4CCOCC4)n3)ccc(F)c2F)ccc1NC(=O)[C@@H]1N[C@@H](CC(C)(C)C)[C@](C#N)(c2ccc(Cl)cc2F)[C@H]1c1cccc(Cl)c1F | Bld | – | – | 4 | – | – | – | – | 3.7 | Bld
16 | COc1ccc2c(c1)c(CC(=O)NCCCCCCC(=O)N[C@H](C(=O)N1C[C@H](O)C[C@H]1C(=O)N[C@@H](C)c1ccc(-c3scnc3C)cc1)C(C)(C)C)c(C)n2C(=O)c1ccc(Cl)cc1 | Bld | -7.34 | Bld | 5.6 | – | – | – | – | – | –
17 | Cc1ncsc1-c1ccc([C@H](C)NC(=O)[C@@H]2C[C@@H](O)CN2C(=O)[C@@H](NC(=O)COCCOCCNC(=O)COc2c(-c3csc(N4CCOCC4)n3)ccc(F)c2F)C(C)(C)C)cc1 | – | -4.52 | – | 3.94 | – | – | -4.47 | – | 3.5 | –
18 | Cc1ccc(-c2csc(N3CCOCC3)n2)c(OCC(=O)NCCCCC(=O)N[C@H](C(=O)N2C[C@H](O)C[C@H]2C(=O)N[C@@H](C)c2ccc(-c3scnc3C)cc2)C(C)(C)C)c1C | – | -5.05 | Bld | 5.02 | – | – | -4.89 | – | – | –
19 | Cc1ncsc1-c1ccc([C@H](C)NC(=O)[C@@H]2C[C@@H](O)CN2C(=O)[C@@H](NC(=O)COCCOCCOCC(=O)N[C@H](C(=O)N2C[C@H](O)C[C@H]2C(=O)N[C@@H](C)c2ccc(-c3scnc3C)cc2)C(C)(C)C)C(C)(C)C)cc1 | – | -4.23 | – | 3.9 | – | – | -4.21 | – | 3.5 | –
20 | Cc1ncsc1-c1ccc([C@H](C)NC(=O)[C@@H]2C[C@H](O)CN2C(=O)[C@@H](NC(=O)COCCOCCOCC(=O)N[C@H](C(=O)N2C[C@@H](O)C[C@H]2C(=O)N[C@@H](C)c2ccc(-c3scnc3C)cc2)C(C)(C)C)C(C)(C)C)cc1 | – | -4.66 | – | 3.5 | – | – | -4.62 | – | 3.74 | –
21 | CN[C@@H](C)C(=O)N[C@H](C(=O)N1CCC[C@H]1C(=O)N[C@H](C(=O)NCCCCCCNC(=O)c1cccc2sc(N3CCOCC3)nc12)C(c1ccccc1)c1ccccc1)C1CCCCC1 (H-[NMeA][Chg]P[Dip]-X2) | – | -4.72 | Bld | 5.1 | – | – | -4.66 | – | – | –
22 | CC(=O)c1c(C)c2cnc(Nc3ccc(N4CCN(CCOCCOCCOCCNC(=O)COc5cccc6c5C(=O)N(C5CCC(=O)NC5=O)C6=O)CC4)cn3)nc2n(C2CCCC2)c1=O (centres undefined) | – | -5.05 | – | 2.29 | – | – | -4.72 | – | 2.17 | –
